Assay results as given in article PMC8583936, “Machine Learning Assisted Approach for Finding Novel High Activity Agonists of Human Ectopic Olfactory Receptors” (International Journal of Molecular Sciences, 2021).
Where “and” joins values, the source holds several entries; their conditions need not be identical. Equal values may be shown once.

Columns and labels:
OR2W1 = target: T1, OR2W1 (Homo sapiens, UniProt Q9Y3N9); experiment: Dual-Glo luciferase reporter gene assay, OR2W1 in Hana3A cells; type: cell-based; set-up: The open reading frames of ORs were amplified using Phusion polymerase; Rho-tag (first 20 amino acids of human rhodopsin) (N); expressed in transfected cells; host or cells: Hana3A cells (derived from HEK293T), pCI vector; co-transfected with human RTP1S, M3 receptor, CRE-Luc and SV40-RL; details: for activation of OR2W1 in dose-responses: Figure 4B; for Bottom / Top: log(agonist) vs. response (three parameters), normalized (L-400/R-400); for normilazed value = (L-400/R-400): three replicates
T1 sequence (Q9Y3N9 1-320): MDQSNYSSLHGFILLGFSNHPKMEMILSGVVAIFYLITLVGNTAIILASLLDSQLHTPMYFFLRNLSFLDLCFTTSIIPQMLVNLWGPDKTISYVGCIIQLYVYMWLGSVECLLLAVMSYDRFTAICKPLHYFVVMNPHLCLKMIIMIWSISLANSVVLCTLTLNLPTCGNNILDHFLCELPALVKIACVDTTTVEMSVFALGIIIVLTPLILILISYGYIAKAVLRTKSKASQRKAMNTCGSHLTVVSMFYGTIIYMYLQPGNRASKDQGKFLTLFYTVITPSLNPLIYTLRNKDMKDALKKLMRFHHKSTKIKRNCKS
Description: (§1) Hana3A cells were maintained in minimal essential medium containing 10% FBS (vol/vol) with penicillin-streptomycin and amphotericin B (1/200 each vol/vol) at 37 °C and 5% CO2. Hana3A cells are derived from HEK293T [57] and are optimized for OR studies as shown in several studies, compared to earlier OR expression in Sf9 insect cells in Gat et al., and in Xenopus oocytes, COS-7, PC12h and CHO-K1 cells in Katada et al..
(§2) The Dual-Glo luciferase assay system (Promega, Madison, WI, USA) was used to evaluate the functionality of wild-type OR1A1 and OR2W1 in an in vitro system. The open reading frames of ORs were amplified using Phusion polymerase (Thermo Fisher Scientific, Waltham, MA, USA). Amplified fragments were cloned into pCI expression vector (Promega, Madison, WI, USA) containing the sequence encoding the first 20 amino acids of human rhodopsin (Rho-tag) at N-terminal. Hana3A cells have been cultured and plated the day before transfection with 6 mL at 1/10 of a 100% confluence 100 mm plate into 96-well plates coated with poly D-lysine. After overnight incubation, the required genes were transfected using, for each plate, 5 ng SV40-RL, 10 ng CRE-Luc, 5 ng human RTP1S [72], 2.5 ng M3 receptor [73] and 5 ng of receptor (OR1A1, OR2W1 or empty vector Rho-pCI) plasmid. After around 18 h of transfection, cells were stimulated during 3.5 h by 25 µL of odorant diluted in CD293 + 1% glutamine + 30 µM CuCl2. Odorants were obtained from Sigma Aldrich (St. Louis, MO, USA) and diluted at 1 M concentration in DMSO as stock solutions. […] The luminescence of Firefly (Luc) and Renilla (Rluc) luciferase, were then sequentially monitored by injecting the corresponding substrate following the supplier’s protocol. The activity in each well was normalized as (Luc-400)/(Rluc-400). The response of the receptor was also normalized to its basal activity as (NLX/NL0)-1 where NL0 is the normalized luminescence value at 0 µM of odorant and NLX the value at X µM. […] Raw results were first analyzed with Excel (Microsoft Corporation, Albuquerque, NM, USA) and dose response curves, max efficacy and EC50 have been determined with GraphPrism 6 software (GraphPad Software, La Jolla, CA, USA). Areas under the curves (AUC) were calculated in Excel by summing all the OR responses at different concentrations for each odorant.

OR1A1 = target: T2, OR1A1 (Homo sapiens, UniProt Q9P1Q5); experiment: Dual-Glo luciferase reporter gene assay, OR1A1 in Hana3A cells; type: cell-based; set-up: The open reading frames of ORs were amplified using Phusion polymerase; Rho-tag (first 20 amino acids of human rhodopsin) (N); expressed in transfected cells; host or cells: Hana3A cells (derived from HEK293T), pCI vector; co-transfected with human RTP1S, M3 receptor, CRE-Luc and SV40-RL; details: for activation of OR1A1 in dose-responses: Figure 4A; for EC50 / Bottom / Top / normilazed value = (L-400/R-400) / LogEC50: OR1A1; for Bottom / Top: log(agonist) vs. response (three parameters), normalized (L-400/R-400); for normilazed value = (L-400/R-400) / LogEC50: log[molecule]; for normilazed value = (L-400/R-400): three replicates; for LogEC50: M
T2 sequence (Q9P1Q5 1-309): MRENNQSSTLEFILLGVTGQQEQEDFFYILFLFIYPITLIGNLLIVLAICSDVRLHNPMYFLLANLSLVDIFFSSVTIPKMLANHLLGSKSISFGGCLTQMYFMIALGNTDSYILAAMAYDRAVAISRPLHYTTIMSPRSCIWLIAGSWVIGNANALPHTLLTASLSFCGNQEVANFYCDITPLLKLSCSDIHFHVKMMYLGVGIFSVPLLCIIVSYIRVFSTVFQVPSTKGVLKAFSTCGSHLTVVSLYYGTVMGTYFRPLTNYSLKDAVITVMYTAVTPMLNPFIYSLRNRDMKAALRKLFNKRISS
Description: as §1, §2

[1] = OR2W1, 95% CI (profile likelihood)
[2] = three-parameter fit, 95% CI (profile likelihood)

SMILES	activation of OR2W1 in dose-responses (OR2W1)	Bottom (OR2W1; [1])	Top (OR2W1; [1])	activation of OR1A1 in dose-responses (OR1A1)	EC50 (OR1A1; 95% CI)	Bottom (OR1A1; 95% CI (profile likelihood))	Top (OR1A1; 95% CI (profile likelihood))	normilazed value = (L-400/R-400) (OR1A1; M = -3.5)	normilazed value = (L-400/R-400) (OR1A1; M = -3.75)	normilazed value = (L-400/R-400) (OR1A1; M = -4)	normilazed value = (L-400/R-400) (OR1A1; M = -4.25)	normilazed value = (L-400/R-400) (OR1A1; M = -4.5)	normilazed value = (L-400/R-400) (OR1A1; M = -4.75)	normilazed value = (L-400/R-400) (OR1A1; M = -5)	normilazed value = (L-400/R-400) (OR1A1; M = -5.25)	normilazed value = (L-400/R-400) (OR1A1; M = -5.5)	normilazed value = (L-400/R-400) (OR1A1; M = -5.75)	normilazed value = (L-400/R-400) (OR1A1; M = -6)	EC50 (OR1A1; [2])	LogEC50 (OR1A1; [2])	further results
C=Cc1ccc(OCCCCOc2ccc(C=C)cc2)cc1 [1-Ethenyl-4-[4-(4-ethenylphenoxy)butoxy]benzene]	non-agonist	13.33 to 18.34	19.48 to 21.36																		normilazed value = (L-400/R-400) (OR2W1; OR2W1, log[molecule], M = -3.5, listed as 1,4 bis(4-vinylphenoxy)butane): 14.9951 and 16.6432 and 18.6473; normilazed value = (L-400/R-400) (OR2W1; OR2W1, log[molecule], M = -3.75, listed as 1,4 bis(4-vinylphenoxy)butane): 18.9044 and 23.5612 and 19.9145; normilazed value = (L-400/R-400) (OR2W1; OR2W1, log[molecule], M = -4, listed as 1,4 bis(4-vinylphenoxy)butane): 20.1703 and 23.9778 and 22.651; normilazed value = (L-400/R-400) (OR2W1; OR2W1, log[molecule], M = -4.25, listed as 1,4 bis(4-vinylphenoxy)butane): 19.282 and 20.5728 and 18.4952; normilazed value = (L-400/R-400) (OR2W1; OR2W1, log[molecule], M = -4.5, listed as 1,4 bis(4-vinylphenoxy)butane): 18.9465 and 18.6061 and 21.68; normilazed value = (L-400/R-400) (OR2W1; OR2W1, log[molecule], M = -4.75, listed as 1,4 bis(4-vinylphenoxy)butane): 18.1682 and 21.4587 and 25.3103; normilazed value = (L-400/R-400) (OR2W1; OR2W1, log[molecule], M = -5, listed as 1,4 bis(4-vinylphenoxy)butane): 19.2619 and 21.2657 and 21.338; normilazed value = (L-400/R-400) (OR2W1; OR2W1, log[molecule], M = -5.25, listed as 1,4 bis(4-vinylphenoxy)butane): 22.445 and 21 and 22.2921; normilazed value = (L-400/R-400) (OR2W1; OR2W1, log[molecule], M = -5.5, listed as 1,4 bis(4-vinylphenoxy)butane): 19.9195 and 18.3482 and 19.8887; normilazed value = (L-400/R-400) (OR2W1; OR2W1, log[molecule], M = -5.75, listed as 1,4 bis(4-vinylphenoxy)butane): 21.6432 and 19.6062 and 21.4331; normilazed value = (L-400/R-400) (OR2W1; OR2W1, log[molecule], M = -6, listed as 1,4 bis(4-vinylphenoxy)butane): 16.9263 and 20.1438 and 17.6109
CCOc1ccc2ccccc2c1 [2-Ethoxynaphthalene]	activated OR2W1 in a dose-response manner	9.687 to 19.33	32.32 to 36.67																		potency relative to the strongest OR2W1 agonist of Bushdid et al. (OR2W1; OR2W1, comparison with ref 14): two times more potent; normilazed value = (L-400/R-400) (OR2W1; OR2W1, log[molecule], M = -3.5): 30.4896 and 23.1676 and 21.7127; normilazed value = (L-400/R-400) (OR2W1; OR2W1, log[molecule], M = -3.75): 33.5459 and 34.0167 and 35.7983; normilazed value = (L-400/R-400) (OR2W1; OR2W1, log[molecule], M = -4): 29.5332 and 32.1424 and 36.1752; normilazed value = (L-400/R-400) (OR2W1; OR2W1, log[molecule], M = -4.25): 38.6596 and 38.9119 and 38.3122; normilazed value = (L-400/R-400) (OR2W1; OR2W1, log[molecule], M = -4.5): 28.5017 and 40.4493 and 38.4842; normilazed value = (L-400/R-400) (OR2W1; OR2W1, log[molecule], M = -4.75): 39.1645 and 34.3635 and 36.5051; normilazed value = (L-400/R-400) (OR2W1; OR2W1, log[molecule], M = -5): 30.1654 and 33.9031 and 33.7738; normilazed value = (L-400/R-400) (OR2W1; OR2W1, log[molecule], M = -5.25): 31.8777 and 31.6329 and 33.9788; normilazed value = (L-400/R-400) (OR2W1; OR2W1, log[molecule], M = -5.5): 30.0044 and 26.9494 and 25.4775; normilazed value = (L-400/R-400) (OR2W1; OR2W1, log[molecule], M = -5.75): 22.1602 and 26.5902 and 25.5852; normilazed value = (L-400/R-400) (OR2W1; OR2W1, log[molecule], M = -6): 23.2783 and 19.1056 and 20.6534; EC50 (OR2W1; OR2W1, three-parameter fit, 95% CI (profile likelihood)): 0.659 to 3.05 µM; LogEC50 (OR2W1; OR2W1, three-parameter fit, 95% CI (profile likelihood), log[molecule], M): -6.181 to -5.515
CCOC(=O)Cc1cccc(Br)c1 [Ethyl 2-(3-bromophenyl)acetate]				able to activate OR1A1	11.5 to 24.4 µM	0.4401 to 2.007	11.66 to 13.55	9.12 and 11.0639 and 10.393	11.9065 and 11.6251 and 11.7476	13.3839 and 12.372 and 11.9409	8.912 and 11.2901 and 12.3912	7.943 and 8.382 and 10.0109	5.611 and 6.9779 and 6.123	5.045 and 5.149 and 4.806	3.622 and 3.689 and 4.46	2.564 and 3.159 and 3.452	2.1766 and 2.696 and 2.931	1.855 and 2.338 and 2.234	11.5 to 24.4 µM	-4.940 to -4.613	
COC(=O)Cc1ccccc1C [Methyl 2-(2-methylphenyl)acetate]				able to activate OR1A1	12.2 to 25 µM	0.03511 to 1.535	11.79 to 13.66	10.0524 and 12.0337 and 11.3132	12.5278 and 11.5014 and 12.1842	10.2366 and 11.6676 and 13.2311	7.699 and 8.952 and 12.582	7.699 and 8.491 and 8.724	5.333 and 7.756 and 8.263	4.586 and 4.422 and 5.725	3.435 and 3.266 and 4.088	2.183 and 2.432 and 2.624	1.457 and 1.905 and 2.354	1.1663 and 1.179 and 1.777	12.2 to 25 µM	-4.914 to -4.603	
